# Sander's compilation of Henry's law constants
# Tests used:
# [1] = Henry solubility constant Hcp at 298.15 K (mol/(m3 Pa))
# [2] = Henry solubility constant Hcp at 293 K (mol/(m3 Pa))
# [3] = reference: De Maagd et al. (1998)
# [4] = reference: Kames and Schurath (1995)
# [5] = reference: Wolfenden and Williams (1983)
# [6] = reference: Kutsuna et al. (2005)
# [7] = reference: McFall et al. (2020)
# [8] = reference: Morrison and Johnstone (1954)
# [9] = reference: Jantunen and Bidleman (2006)
# [10] = reference: Sahsuvar et al. (2003)
# [11] = reference: Copolovici and Niinemets (2005)
smiles,measurement,setting,value
"CC(Cl)(Cl)Cl [1,1,1-trichloroethane]",Henry solubility constant Hcp,[1]; reference: Bissonette et al. (1990),0.00051
same,Henry solubility constant Hcp,[1]; reference: Chen et al. (2012),0.00054
same,Henry solubility constant Hcp,[1]; reference: Ervin et al. (1980),0.00027
same,Henry solubility constant Hcp,[1]; reference: Gossett (1987),0.00059
same,Henry solubility constant Hcp,[1]; reference: Gossett et al. (1985),0.00057
same,Henry solubility constant Hcp,[1]; reference: Hunter-Smith et al. (1983),0.00076
same,Henry solubility constant Hcp,[1]; reference: Lincoff and Gossett (1984),0.00059
same,Henry solubility constant Hcp,[1]; reference: Munz and Roberts (1987),0.00058
same,Henry solubility constant Hcp,[1]; reference: Robbins et al. (1993),0.00055
same,Henry solubility constant Hcp,[1]; reference: Turner et al. (1996),0.00048
same,Henry solubility constant Hcp,[1]; reference: Vane and Giroux (2000),0.00062
same,Henry solubility constant Hcp,[1]; reference: Warner et al. (1980),0.002
same,Henry solubility constant Hcp at 293 K,[2]; reference: Chiang et al. (1998),0.00071
same,Henry solubility constant Hcp at 293 K,[2]; reference: Pearson and McConnell (1975),0.00029
same,Henry solubility constant Hcp at 293 K,[2]; reference: Yurteri et al. (1987),0.00063
Cc1ccc2ccccc2c1 [2-methylnaphthalene],Henry solubility constant Hcp at 293 K,[2]; [3],0.022
c1ccc2c(c1)-c1cccc3cccc-2c13 [benzo[jk]fluorene],Henry solubility constant Hcp at 293 K,[2]; [3],0.91
CCOP(=S)(OCC)Oc1nc(Cl)c(Cl)cc1Cl [chlorpyrifos],Henry solubility constant Hcp at 293 K,[2]; reference: Rice et al. (1997b),3.1
OBr [hypobromous acid],Henry solubility constant Hcp at 293 K,[2]; reference: Blatchley et al. (1992),> 19
same,Henry solubility constant Hcp at 293 K,[2]; reference: McCoy et al. (1990),19
CCCC(=O)OO[N+](=O)[O-] [nitro butaneperoxoate],Henry solubility constant Hcp at 293 K,[2]; [4],0.023
O=CCCCC=O [pentanedial],Henry solubility constant Hcp,[1]; reference: Olson (1998),300
O=C(O)CCCC(=O)O [pentanedioic acid],Henry solubility constant Hcp,[1]; reference: Mentel et al. (2004),1.9e+07
CCCCC(=O)O [pentanoic acid],Henry solubility constant Hcp,[1]; reference: Khan and Brimblecombe (1992),21
same,Henry solubility constant Hcp,[1]; reference: Khan et al. (1995),23
same,Henry solubility constant Hcp,[1]; reference: Kim and Kim (2016),24
same,Henry solubility constant Hcp,[1]; reference: von Hartungen et al. (2004),12
O=C(O)C(F)(F)C(F)(F)C(F)(F)F [perfluorobutanoic acid],Henry solubility constant Hcp,[1]; reference: Kwan (2001),0.81
O=C(O)C(F)(F)C(F)(F)C(F)(F)C(F)(F)C(F)(F)C(F)(F)F [perfluoroheptanoic acid],Henry solubility constant Hcp,[1]; reference: Kwan (2001),1.7
O=C(O)C(F)(F)C(F)(F)C(F)(F)C(F)(F)C(F)(F)F [perfluorohexanoic acid],Henry solubility constant Hcp,[1]; reference: Kwan (2001),1.1
O=C(O)C(F)(F)C(F)(F)C(F)(F)C(F)(F)F [perfluoropentanoic acid],Henry solubility constant Hcp,[1]; reference: Kwan (2001),0.67
O=C(O)C(F)(F)C(F)(F)F [perfluoropropanoic acid],Henry solubility constant Hcp,[1]; reference: Kwan (2001),8.8
CC(C)C(=O)OO[N+](=O)[O-] [peroxy-isobutyryl nitrate],Henry solubility constant Hcp at 293 K,[2]; [4],0.0099
CC(=O)O[O] [peroxyacetyl radical],Henry solubility constant Hcp,[1]; reference: Villalta et al. (1996),< 0.00099
"COP(=O)(OC)OC [phosphoric acid, trimethyl ester]",Henry solubility constant Hcp at 293 K,[2]; [5],1400
C1CCNCC1 [piperidine],Henry solubility constant Hcp,[1]; reference: Bernauer and Dohnal (2009),2.8
"COC(=O)CC(=O)OC [propanedioic acid, dimethyl ester]",Henry solubility constant Hcp,[1]; reference: Katrib et al. (2003),38
C=CC=O [propenal],Henry solubility constant Hcp,[1]; reference: Snider and Dawson (1985),0.072
C=CC [propene],Henry solubility constant Hcp,[1]; reference: Maaßen (1995),5.4e-05
same,Henry solubility constant Hcp,[1]; reference: Reichl (1995),5.4e-05
CCCOC=O [propyl methanoate],Henry solubility constant Hcp,[1]; [6],0.026
C=COCCC [propyl vinyl ether],Henry solubility constant Hcp,[1]; reference: Hwang et al. (2010),0.0031
CCCc1ccccc1 [propylbenzene],Henry solubility constant Hcp,[1]; reference: Perlinger et al. (1993),0.00086
C#CC [propyne],Henry solubility constant Hcp,[1]; reference: Inga and McKetta (1961),0.00062
same,Henry solubility constant Hcp,[1]; reference: Simpson and Lovell (1962),0.00077
Cc1cc(C)nc(Nc2ccccc2)n1 [pyrimethanil],Henry solubility constant Hcp,[1]; reference: Feigenbrugel and Le Calvé (2021),340
[Rn] [radon],Henry solubility constant Hcp,[1]; reference: Lewis et al. (1987),9.4e-05
same,Henry solubility constant Hcp,[1]; reference: Ramstedt (1911),0.0001
O[Si](O)(O)O [silicic acid],Henry solubility constant Hcp,[1]; reference: Plyasunov (2012),2.3e+10
O=S(=O)(F)F [sulfuryl fluoride],Henry solubility constant Hcp,[1]; reference: Cady and Misra (1974),8.9e-05
COc1cc(CCC(C)=O)cc(OC)c1O [syringylacetone],Henry solubility constant Hcp,[1]; [7],1.2e+06
C[CH2][Pb]([CH2]C)([CH2]C)[CH2]C [tetraethyl lead],Henry solubility constant Hcp,[1]; reference: Feldhake and Stevens (1963),1.3e-05
FC(F)(F)F [tetrafluoromethane],Henry solubility constant Hcp,[1]; reference: Ashton et al. (1968),2.1e-06
same,Henry solubility constant Hcp,[1]; reference: Cosgrove and Walkley (1981),2.1e-06
same,Henry solubility constant Hcp,[1]; [8],2e-06
same,Henry solubility constant Hcp,[1]; reference: Park et al. (1982),2.1e-06
same,Henry solubility constant Hcp,[1]; reference: Reichl (1995),2e-06
same,Henry solubility constant Hcp,[1]; reference: Scharlin and Battino (1994),2.1e-06
same,Henry solubility constant Hcp,[1]; reference: Scharlin and Battino (1995),2.1e-06
same,Henry solubility constant Hcp,[1]; reference: Wen and Muccitelli (1979),2e-06
C1CCOCC1 [tetrahydropyran],Henry solubility constant Hcp,[1]; reference: Ondo and Dohnal (2007),0.083
[CH3][Sn]([CH3])([CH3])[CH3] [tetramethylstannane],Henry solubility constant Hcp,[1]; reference: Abraham and Nasehzadeh (1981),9.4e-06
c1ccsc1 [thiophene],Henry solubility constant Hcp,[1]; reference: Haimi et al. (2006),0.0041
"CCC=CCCC=CC=O [trans-2,cis-6-nonadienal]",Henry solubility constant Hcp,[1]; reference: Ömür-Özbek and Dietrich (2005),0.082
ClC1=C(Cl)[C@]2(Cl)[C@H]3[C@H](Cl)[C@@H](Cl)C[C@H]3[C@@]1(Cl)C2(Cl)Cl [trans-chlordane],Henry solubility constant Hcp,[1]; [9],0.034
ClC1=C(Cl)C2(Cl)C3C(Cl)C(Cl)C(Cl)C3C1(Cl)C2(Cl)Cl (stereo not drawn) [trans-nonachlor],Henry solubility constant Hcp,[1]; [9],0.031
O=C(O)C(Br)(Br)Br [tribromoethanoic acid],Henry solubility constant Hcp,[1]; reference: Bowden et al. (1998a),2900
O=C(O)C(Cl)(Cl)Cl [trichloroethanoic acid],Henry solubility constant Hcp,[1]; reference: Bowden et al. (1998b),730
CCOP(=O)(OCC)OCC [triethylphosphate],Henry solubility constant Hcp at 293 K,[2]; [5],270
"CCOC(=O)C(F)(F)F [trifluoroethanoic acid, ethyl ester]",Henry solubility constant Hcp,[1]; reference: Kutsuna and Kaneyasu (2021),0.00071
same,Henry solubility constant Hcp,[1]; [6],0.00089
"COC(=O)C(F)(F)F [trifluoroethanoic acid, methyl ester]",Henry solubility constant Hcp,[1]; reference: Kutsuna et al. (2004),0.0012
FC(F)F [trifluoromethane],Henry solubility constant Hcp,[1]; reference: Maaßen (1995),0.00012
same,Henry solubility constant Hcp,[1]; reference: Miguel et al. (2000),0.00021
same,Henry solubility constant Hcp,[1]; reference: Zheng et al. (1997),0.00013
CN(C)C [trimethylamine],Henry solubility constant Hcp,[1]; reference: Amoore and Buttery (1978),0.076
same,Henry solubility constant Hcp,[1]; reference: Christie and Crisp (1967),0.095
same,Henry solubility constant Hcp,[1]; reference: Leng et al. (2015a),0.084
C[Si](C)(C)O [trimethylsilanol],Henry solubility constant Hcp,[1]; reference: Xu and Kropscott (2014),0.07
CCCOP(=O)(OCCC)OCCC [tripropyl phosphate],Henry solubility constant Hcp at 293 K,[2]; [5],15
COc1cc(CO)ccc1O [vanillyl alcohol],Henry solubility constant Hcp,[1]; [7],96000
CCOCc1ccc(O)c(OC)c1 [vanillyl ethyl ether],Henry solubility constant Hcp,[1]; [7],410
[Xe] [xenon],Henry solubility constant Hcp,[1]; reference: Crovetto et al. (1982),4.2e-05
same,Henry solubility constant Hcp,[1]; reference: Krause and Benson (1989),4.3e-05
same,Henry solubility constant Hcp,[1]; [8],4.2e-05
same,Henry solubility constant Hcp,[1]; reference: von Antropoff (1910),4.4e-05
COc1cc(CCC(C)=O)ccc1O [zingerone],Henry solubility constant Hcp,[1]; [7],12000
"ClC1C(Cl)C(Cl)C(Cl)C(Cl)C1Cl (stereo not drawn) [α-1,2,3,4,5,6-hexachlorocyclohexane]",Henry solubility constant Hcp,[1]; reference: Kucklick et al. (1991),1.3
same,Henry solubility constant Hcp,[1]; [10],1.7
C=C/C(C)=C/C/C=C(\C)CCC=C(C)C [α-farnesene],Henry solubility constant Hcp,[1]; reference: Schuhfried et al. (2015),8.1e-06
CC1=CCC(C(C)C)C=C1 (stereo not drawn) [α-phellandrene],Henry solubility constant Hcp,[1]; [11],0.00018
"ClC1C(Cl)C(Cl)C(Cl)C(Cl)C1Cl (stereo not drawn) [β-1,2,3,4,5,6-hexachlorocyclohexane]",Henry solubility constant Hcp,[1]; [10],28
CC(=O)/C=C/C1=C(C)CCCC1(C)C [β-ionone],Henry solubility constant Hcp,[1]; reference: Fichan et al. (1999),1.2
C=C1C=CC(C(C)C)CC1 (stereo not drawn) [β-phellandrene],Henry solubility constant Hcp,[1]; [11],0.00018
